US20040223946A1, “Adhesive treatment for insect and related bites” (Closure Medical Corporation, priority 2003, published 2004)

Assay: Observation of the monomer composition about one minute and at least twenty-four hours after preparation
Assay type: physicochemical
Conditions: 1 wt % in 2 mL 2-octyl cyanoacrylate monomer
Protocol: A 2-octyl cyanoacrylate monomer composition is prepared by adding 1 wt % menthol to 2 mL of 2-octyl cyanoacrylate monomer. The mixture is stirred.
The characteristics of the composition are observed at about one minute after preparation and later at least twenty-four hours after preparation.

For `CC1CCC(C(C)C)C(O)C1` (stereo not shown) [menthol], the “solubility of the additive in 2-octyl cyanoacrylate monomer” value was “soluble in the monomer”.
